In PMC11767950, “Human Serum Albumin and Human Serum Albumin Nanoparticles as Carriers of 10-(2′-Pyrimidyl)-3,6-diazaphenothiazine: In Vitro Spectroscopic Studies” (Molecules, 2025):

Molecular target: T1, Human serum albumin (HSA) (Homo sapiens, UniProt P02768)
T1 construct: gene ALB
Assay: intrinsic fluorescence quenching (Stern-Volmer, Klotz Ka), dansyl amino acid marker displacement, far UV-CD
Type: binding
Details: read-out: λex 275 nm / Ka [mol^-1.L] ± SD ^1

T1 sequence (P02768 25-609): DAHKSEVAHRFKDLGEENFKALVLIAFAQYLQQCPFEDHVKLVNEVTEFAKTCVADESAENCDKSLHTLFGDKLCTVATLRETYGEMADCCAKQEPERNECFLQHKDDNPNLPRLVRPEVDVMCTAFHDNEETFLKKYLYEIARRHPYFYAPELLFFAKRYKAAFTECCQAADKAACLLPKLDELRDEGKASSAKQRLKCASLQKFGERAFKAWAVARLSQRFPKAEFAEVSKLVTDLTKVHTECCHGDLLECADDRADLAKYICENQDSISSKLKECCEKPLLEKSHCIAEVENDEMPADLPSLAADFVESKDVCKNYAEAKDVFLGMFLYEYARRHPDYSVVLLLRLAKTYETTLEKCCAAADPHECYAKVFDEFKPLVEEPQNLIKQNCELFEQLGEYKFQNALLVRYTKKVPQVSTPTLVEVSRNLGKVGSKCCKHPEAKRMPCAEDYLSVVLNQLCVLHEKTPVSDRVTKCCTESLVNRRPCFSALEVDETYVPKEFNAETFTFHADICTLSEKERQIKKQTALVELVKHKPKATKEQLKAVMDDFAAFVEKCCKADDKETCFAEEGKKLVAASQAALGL

Kd: 19.1 µM
Structure (SMILES): c1cnc(N2c3ccncc3Sc3ncccc32)nc1 [10-Pyr-3,6-DAPT, 10-(2′-pyrimidyl)-3,6-diazaphenothiazine]
